Results taken from patent publication US6506791B2, “Method of treatment of protozoan infections in fish” (Jacksonville State University, priority 2000, dated 2003).

Columns and labels:
humans = details: according to the FDA (1982); cited from earlier work
rat = details: cited from earlier work
dog = details: cited from earlier work
[1] = cited from earlier work
[2] = tested on: Ick trophozoite stage attached to the fish host; experiment: Aquarium treatment of fish infected with Ick, microscopic examination; type: in vivo, Ichthyophthirius multifiliis; details: around 5 mg/L in aquarium, added in darkness, at least eight hours absorption, then artificial lamps
Excerpt: The effectiveness of treatments of photoactive dyes on parasite control in a particular fish population can be determined by those skilled in the art by monitoring the general behavior of the fish (swimming, feeding, etc.) and the appearance of the parasite by microscopic examination. For example, live Ick trophozoites may be monitored using image analysis microscopy using a Image-Pro Plus V. 4.0.0.13, available from Media Cybernetics, L.P.
In one embodiment of the invention, the photoactive dye, Phloxine B, is added as a dry powder to an aquarium containing fish infected with Ick. The Phloxine B is added to achieve a final concentration of around 5 mg/L. The Phloxine B is added to the aquarium in darkness and at least eight hours of absorption is allowed before photoactivation. Photoactivation is achieved by exposing the Ick infected fish to light from artificial lamps. […] Although this particular embodiment is performed in a laboratory setting, those skilled in the art will understand that the teachings can be adapted to a commercial operation without undue experimentation.

Ick [3] = experiment: LIGHT EXPERIMENT under greenhouse conditions (effect of light intensity); type: cell-based, Ichthyophthirius multifiliis
Method: (§1) An in vivo study was conducted involving the direct dosing of Ick parasites with Phloxine B. 1 μl of Ick theronts, both free-swimming tomites and non-ruptured cysts, and 9 μl of a Phloxine solution containing either 1000, 100, 10, 1 and 0 ppm of Phloxine B were placed into 100×15 mm tri-plate petri dishes providing 3 replicates for each treatment. 1 set of the plates was left exposed to ambient light (6 mE m^−2s^−1) for 5 hr (LIGHT EXPERIMENT), while the other set was kept in the dark for 4 hr then exposed to ambient light for 1 hr (DARK EXPERIMENT). Percent mortality was assessed, then both light and dark plates received a second dose of Phloxine B at the same concentration as before and treated in the same manner.
An experiment was designed to test the effect of light intensity on the effectiveness of Phloxine B treatment of Ick. The previous experiments described in Examples 1 and 2 were conducted in the lab. The ambient light intensity in the lab was very low, 6 μmol m^−2s^−1. An experiment was conducted as following the protocol of Example 1, except the experiment was conducted in a greenhouse to better mimic natural light conditions.

Ick [4] = experiment: Light and dark experiment with doubled exposure times (Example 2); type: cell-based, Ichthyophthirius multifiliis; details: 8 hr dark then 2 hr light or 10 hr light
Method: as §1
A light and dark experiment were set up following the protocol in Example 1, but exposure times were doubled—8 hr dark then 2 hr light or 10 hr light.

mouse = details: cited from earlier work
[5] = exposure to sunlight; cited from earlier work
[6] = tested on: Ick theronts, both free-swimming tomites and non-ruptured cysts; experiment: Direct dosing of Ick parasites with Phloxine B, LIGHT EXPERIMENT (ambient light, lab); type: cell-based, Ichthyophthirius multifiliis
Method: as §1

[7] = tested on: Ick theronts, both free-swimming tomites and non-ruptured cysts; experiment: Direct dosing of Ick parasites with Phloxine B, DARK EXPERIMENT (lab conditions); type: cell-based, Ichthyophthirius multifiliis
Method: as §1

SMILES: O=C([O-])c1c(Cl)c(Cl)c(Cl)c(Cl)c1-c1c2cc(Br)c(=O)c(Br)c-2oc2c(Br)c([O-])c(Br)cc12.[Na+].[Na+] [Phloxine B, 2′, 4′, 5′ 7′-tetrabromo-4,5,6,7-tetrachlorofluorescein, disodium salt]
- Relatively non-toxic ingested amount (humans): ≤ 1.25 mg/kg body weight
- LD50 (rat): 8400 mg/kg
- LD50 (dog): > 4600 mg/kg
- Water solubility [1]: greater than 120 mg/l
- Effectiveness against trophozoite stage attached to the fish host [2]: effective against the formerly invulnerable trophozoite stage
- Percent mortality (Ick [3]; 1 ppm): No effect
- Percent mortality (Ick [3]; 10 ppm, 1 dose): No effect
- Percent mortality (Ick [3]; 100 ppm, 1 dose): 50% Mortality
- Percent mortality (Ick [3]; 1000 ppm, 1 dose): 100% Mortality
- Effect of exposure time on effectiveness of the dye (Ick [4]): longer exposure time increased the effectiveness
- LD50 (mouse): 310 mg/kg
- Time to degradation and detoxification [5]: < 1 h
- Percent mortality ([6]; 1 ppm, 1 dose, ambient light 5 hr): No effect
- Percent mortality ([6]; 1 ppm, 2 doses, ambient light 5 hr per dose): No effect
- Percent mortality ([6]; 10 ppm, 1 dose, ambient light 5 hr): No effect
- Percent mortality ([6]; 10 ppm, 2 doses, ambient light 5 hr per dose): No effect
- Percent mortality ([6]; 100 ppm, 1 dose, ambient light 5 hr): 20% Mortality
- Percent mortality ([6]; 100 ppm, 2 doses, ambient light 5 hr per dose): 80% Mortality
- Percent mortality ([6]; 1000 ppm, 1 dose, ambient light 5 hr): 80% Mortality
- Percent mortality ([6]; 1000 ppm, 2 doses, ambient light 5 hr per dose): 100% Mortality
- Uptake of the dye by free-swimming and encysted organisms ([6]; observation from Examples 1-3): taken up both free-swimming and encysted organisms
- Percent mortality ([7]; 1 ppm, 1 dose, dark 4 hr then ambient light 1 hr): No effect
- Percent mortality ([7]; 1 ppm, 2 doses, dark 4 hr then ambient light 1 hr per dose): No effect
- Percent mortality ([7]; 10 ppm, 1 dose, dark 4 hr then ambient light 1 hr): No effect
- Percent mortality ([7]; 10 ppm, 2 doses, dark 4 hr then ambient light 1 hr per dose): No effect
- Percent mortality ([7]; 100 ppm, 1 dose, dark 4 hr then ambient light 1 hr): No effect
- Percent mortality ([7]; 100 ppm, 2 doses, dark 4 hr then ambient light 1 hr per dose): 10% Mortality
- Percent mortality ([7]; 1000 ppm, 1 dose, dark 4 hr then ambient light 1 hr): 40% Mortality
- Percent mortality ([7]; 1000 ppm, 2 doses, dark 4 hr then ambient light 1 hr per dose): 95% Mortality
